# Test results published in US6723755B2, “Method of treating rosacea” (priority 2002, dated 2004).
# Tested on: rosacea
# Test: topical treatment of rosacea (related materials tested)
# Format: in vivo, humans
# Details: topical application
row,Compound,usefulness in the present invention (treatment of rosacea)
1,C1CCCCC1 [cyclohexane],not to be useful
2,"OC1CCCC1O (stereo not drawn) [1,2-cyclopentanediol]",do not work
3,"CC1(C)[C@H]2C[C@H]1[C@@](C)(O)[C@@H](O)C2 [(1R,2R,3S,5S-(−))-pinanediol]",do not work
4,CC(=O)OC1CCCCC1 [cyclohexyl acetate],not to be useful
5,"OCC1(CO)CC2C=CC1C2 (stereo not drawn) [5-norborene-2,2-dimethanol]",do not work
6,O=C(O)C1CCCCC1 [cyclohexyl carboxylic acid],not to be useful
7,CC1CCC(C(C)C)C(O)C1 (stereo not drawn) [menthol],not to be useful
8,CC1(O)CCCCC1 [1-methylcyclohexanol],not to be useful
9,ClC1CCCCC1 [cyclohexyl chloride],not to be useful
10,C1=CCCCC1 [cyclohexene],not to be useful
11,OCCCCC1CCCCC1 [4-cyclohexyl-1-butanol],not to be useful

# Tested on: skin
# Test: skin irritation on topical application
# Format: in vivo
# Details: not given
row,Compound,irritation (reddening) of the skin to which it is applied
1,CC1CCC(C(C)C)C(O)C1 (stereo not drawn) [menthol],can irritate (and thereby redden) the skin
